Reference: the NIST ThermoML archive (doi:10.1016/j.jct.2017.03.006)

Assay: xn = mol fraction of the nth substance listed
Conditions: Liquid; for mass density: Vibrating tube method; for viscosity: Concentric cylinders viscometry

Cc1ccc(C)c(C)c1 [1,2,4-trimethylbenzene] + CCC(C)O
Conditions | mass density [kg/m3] | viscosity [mPa·s]
273.15 K, 60000 kPa, x2 = 0.1 | 917.1 | –
273.15 K, 60000 kPa, x2 = 0.1989 | 911.9 | –
273.15 K, 60000 kPa, x2 = 0.3011 | 906.2 | –
273.15 K, 60000 kPa, x2 = 0.4002 | 900.7 | –
273.15 K, 60000 kPa, x2 = 0.5001 | 894.6 | –
273.15 K, 60000 kPa, x2 = 0.5997 | 888.3 | –
273.15 K, 60000 kPa, x2 = 0.6999 | 881.3 | –
273.15 K, 60000 kPa, x2 = 0.7999 | 873.8 | –
273.15 K, 60000 kPa, x2 = 0.9 | 865.5 | –
273.15 K, 70000 kPa, x2 = 0 | 926.2 | –
273.15 K, 70000 kPa, x2 = 0.1 | 921.5 | –
273.15 K, 70000 kPa, x2 = 0.1989 | 916.2 | –
273.15 K, 70000 kPa, x2 = 0.3011 | 910.7 | –
273.15 K, 70000 kPa, x2 = 0.4002 | 905.2 | –
273.15 K, 70000 kPa, x2 = 0.5001 | 899.2 | –
273.15 K, 70000 kPa, x2 = 0.5997 | 892.8 | –
273.15 K, 70000 kPa, x2 = 0.6999 | 886 | –
273.15 K, 70000 kPa, x2 = 0.7999 | 878.4 | –
273.15 K, 70000 kPa, x2 = 0.9 | 870.2 | –
273.15 K, 80000 kPa, x2 = 0 | 930.3 | –
273.15 K, 80000 kPa, x2 = 0.1 | 925.7 | –
273.15 K, 80000 kPa, x2 = 0.1989 | 920.6 | –
273.15 K, 80000 kPa, x2 = 0.3011 | 915 | –
273.15 K, 80000 kPa, x2 = 0.4002 | 909.6 | –
273.15 K, 80000 kPa, x2 = 0.5001 | 903.5 | –
273.15 K, 80000 kPa, x2 = 0.5997 | 897.2 | –
273.15 K, 80000 kPa, x2 = 0.6999 | 890.3 | –
273.15 K, 80000 kPa, x2 = 0.7999 | 882.8 | –
273.15 K, 80000 kPa, x2 = 0.9 | 874.6 | –
273.15 K, 90000 kPa, x2 = 0 | 934.2 | –
273.15 K, 90000 kPa, x2 = 0.1 | 929.8 | –
273.15 K, 90000 kPa, x2 = 0.1989 | 924.7 | –
273.15 K, 90000 kPa, x2 = 0.3011 | 919.1 | –
273.15 K, 90000 kPa, x2 = 0.4002 | 913.7 | –
273.15 K, 90000 kPa, x2 = 0.5001 | 907.7 | –
273.15 K, 90000 kPa, x2 = 0.5997 | 901.4 | –
273.15 K, 90000 kPa, x2 = 0.6999 | 894.6 | –
273.15 K, 90000 kPa, x2 = 0.7999 | 887.1 | –
273.15 K, 90000 kPa, x2 = 0.9 | 878.9 | –
273.15 K, 100000 kPa, x2 = 0 | 938 | –
273.15 K, 100000 kPa, x2 = 0.1 | 933.7 | –
273.15 K, 100000 kPa, x2 = 0.1989 | 928.6 | –
273.15 K, 100000 kPa, x2 = 0.3011 | 923.1 | –
273.15 K, 100000 kPa, x2 = 0.4002 | 917.7 | –
273.15 K, 100000 kPa, x2 = 0.5001 | 911.7 | –
273.15 K, 100000 kPa, x2 = 0.5997 | 905.5 | –
273.15 K, 100000 kPa, x2 = 0.6999 | 898.7 | –
273.15 K, 100000 kPa, x2 = 0.7999 | 891.2 | –
273.15 K, 100000 kPa, x2 = 0.9 | 883 | –
273.15 K, 110000 kPa, x2 = 0 | 941.7 | –
273.15 K, 110000 kPa, x2 = 0.1 | 937.6 | –
273.15 K, 110000 kPa, x2 = 0.1989 | 932.5 | –
273.15 K, 110000 kPa, x2 = 0.3011 | 927 | –
273.15 K, 110000 kPa, x2 = 0.4002 | 921.6 | –
273.15 K, 110000 kPa, x2 = 0.5001 | 915.7 | –
273.15 K, 110000 kPa, x2 = 0.5997 | 909.4 | –
273.15 K, 110000 kPa, x2 = 0.6999 | 902.5 | –
273.15 K, 110000 kPa, x2 = 0.7999 | 895.1 | –
273.15 K, 110000 kPa, x2 = 0.9 | 887 | –
273.15 K, 120000 kPa, x2 = 0 | 945.2 | –
273.15 K, 120000 kPa, x2 = 0.1 | 941.3 | –
273.15 K, 120000 kPa, x2 = 0.1989 | 936.2 | –
273.15 K, 120000 kPa, x2 = 0.3011 | 930.8 | –
273.15 K, 120000 kPa, x2 = 0.4002 | 925.3 | –
273.15 K, 120000 kPa, x2 = 0.5001 | 919.5 | –
273.15 K, 120000 kPa, x2 = 0.5997 | 913.2 | –
273.15 K, 120000 kPa, x2 = 0.6999 | 906.4 | –
273.15 K, 120000 kPa, x2 = 0.7999 | 899 | –
273.15 K, 120000 kPa, x2 = 0.9 | 890.8 | –
273.15 K, 130000 kPa, x2 = 0 | 948.6 | –
273.15 K, 130000 kPa, x2 = 0.1 | 944.9 | –
273.15 K, 130000 kPa, x2 = 0.1989 | 939.9 | –
273.15 K, 130000 kPa, x2 = 0.3011 | 934.4 | –
273.15 K, 130000 kPa, x2 = 0.4002 | 929 | –
273.15 K, 130000 kPa, x2 = 0.5001 | 923.2 | –
273.15 K, 130000 kPa, x2 = 0.5997 | 916.9 | –
273.15 K, 130000 kPa, x2 = 0.6999 | 910.1 | –
273.15 K, 130000 kPa, x2 = 0.7999 | 902.7 | –
273.15 K, 130000 kPa, x2 = 0.9 | 894.6 | –
273.15 K, 140000 kPa, x2 = 0 | 952 | –
273.15 K, 140000 kPa, x2 = 0.1 | 948.2 | –
273.15 K, 140000 kPa, x2 = 0.1989 | 943.3 | –
273.15 K, 140000 kPa, x2 = 0.3011 | 937.6 | –
273.15 K, 140000 kPa, x2 = 0.4002 | 932.3 | –
273.15 K, 140000 kPa, x2 = 0.5001 | 926.7 | –
273.15 K, 140000 kPa, x2 = 0.5997 | 920.4 | –
273.15 K, 140000 kPa, x2 = 0.6999 | 913.4 | –
273.15 K, 140000 kPa, x2 = 0.7999 | 906 | –
273.15 K, 140000 kPa, x2 = 0.9 | 897.9 | –
293.15 K, 100 kPa, x2 = 0 | 875.1 | 0.888
293.15 K, 100 kPa, x2 = 0.1 | 869.3 | –
293.15 K, 100 kPa, x2 = 0.1001 | – | 0.885
293.15 K, 100 kPa, x2 = 0.2261 | – | 0.909
293.15 K, 100 kPa, x2 = 0.3 | – | 0.935
293.15 K, 100 kPa, x2 = 0.3966 | – | 1.013
293.15 K, 100 kPa, x2 = 0.5298 | – | 1.121
293.15 K, 100 kPa, x2 = 0.6001 | – | 1.25
293.15 K, 100 kPa, x2 = 0.7001 | – | 1.48
293.15 K, 100 kPa, x2 = 0.7997 | – | 1.85
293.15 K, 100 kPa, x2 = 0.9001 | – | 2.47
